Measured values published in ChEMBL document CHEMBL6134807, “A review-plant medicine and its extraction components inhibit influenza virus” (Bioorg Med Chem Lett, 2025).

Tested on: Influenza B virus
Experiment: Antiviral activity against Influenza virus […] B/Panama/45/1990 infected in MDCK cells at 0.001 MOI assessed as inhibition of virus cytopathic effect measured after 48 hrs by crystal violet staining based assay
Type: functional, organism-based
Conditions: B/Panama/45/1990, MDCK

| Structure (SMILES) | EC50 [µM] |
| --- | --- |
| O=C(O[C@@H]1Cc2c(O)cc(O)cc2O[C@@H]1c1cc(O)c(O)c(O)c1)c1cc(O)c(O)c(O)c1 [EPIGALOCATECHIN GALLATE] | 5.7 |
| COc1cc(/C=C/C(=O)CC(=O)/C=C/c2ccc(O)c(OC)c2)ccc1O [CURCUMIN] | 0.47 |
| O=C(O[C@@H]1Cc2c(O)cc(O)cc2O[C@@H]1c1ccc(O)c(O)c1)c1cc(O)c(O)c(O)c1 [EPICATECHIN GALLATE] | 22 |
